Source: patent US9012407B2, “Therapies which act on neuropeptide S receptors” (The Regents of the University of California, priority 2004, dated 2015)

Legend:
C57Bl/6 mice [1] = assay: Open field test; type: in vivo; settings: naive mice, i.c.v.
Method: Naïve mice were tested in the open field, a paradigm of free exploratory behavior in a novel environment. […] In order to further study NPS effects on stress as it relates to anxiety, two additional tests were performed that are based on the natural aversion of rodents to open or unprotected spaces: the light-dark box and the elevated plus maze (FIG. 8B, C).
Male C57Bl/6 mice (National Cancer Institute, Bethesda, MD), age 10-14 weeks, were group-housed (4 animals per cage) under controlled conditions (temperature 21±2° C.; relative humidity 50-60%; 12-hour light-dark cycle, lights on 6:00 AM) with free access to food and water. Prior to drug injections, mice were briefly anesthetized with halothane. NPS was dissolved in phosphate-buffered saline (PBS, pH 7.4) and injected i.c.v. (total volume: 2 μl) as described before (Laursen and Belknap, 1986). […]
Locomotion was monitored in rectangular plexiglass boxes (60×40×50 cm). Horizontal activity was measured over 60 min by 18×12 infrared sensors placed 2 cm above the floor. […] Marble burying was measured in mice placed individually in polypropylene cages (30×18×12 cm) containing 18 glass marbles (1.5 cm diameter) evenly spaced on 5 cm deep rodent bedding (bed-o'cob, The Andersons Inc., Maumee, Ohio) (Njung'e and Handley, 1991). […] Cages were covered with a metal grid and the number of marbles covered at least two-thirds was counted after 30 min.

C57Bl/6 mice [2] = assay: Light-dark box; type: in vivo
Method: (§1) Male C57Bl/6 mice (National Cancer Institute, Bethesda, MD), age 10-14 weeks, were group-housed (4 animals per cage) under controlled conditions (temperature 21±2° C.; relative humidity 50-60%; 12-hour light-dark cycle, lights on 6:00 AM) with free access to food and water. Prior to drug injections, mice were briefly anesthetized with halothane. NPS was dissolved in phosphate-buffered saline (PBS, pH 7.4) and injected i.c.v. (total volume: 2 μl) as described before (Laursen and Belknap, 1986). Mice were allowed to recover for 5 min and then placed in the observation apparatus.
(§2) Locomotion was monitored in rectangular plexiglass boxes (60×40×50 cm). Horizontal activity was measured over 60 min by 18×12 infrared sensors placed 2 cm above the floor. A second row of sensors at 8 cm above the floor was used to record rearing events. The imaginary central zone was defined as a 30×20 cm rectangle in the middle of each observation area. Data were collected using MatLab (Mathworks, Natick, Mass.). Experimental procedures for open field, elevated plus-maze and light-dark box were described previously (Köster et al., 1999). Marble burying was measured in mice placed individually in polypropylene cages (30×18×12 cm) containing 18 glass marbles (1.5 cm diameter) evenly spaced on 5 cm deep rodent bedding (bed-o'cob, The Andersons Inc., Maumee, Ohio) (Njung'e and Handley, 1991). No food or water was present during the observation period. Cages were covered with a metal grid and the number of marbles covered at least two-thirds was counted after 30 min.

C57Bl/6 mice [3] = assay: Elevated plus maze; type: in vivo
Method: as §1, §2

NPSR Ile^107 = biological target: T1, NPSR Ile^107 (Homo sapiens, UniProt Q6W5P4, N107I); assay: Intracellular Ca2+ mobilization (FLIPR) in HEK 293 cells stably expressing NPSR Ile107; type: cell-based; settings: Ca2+ mobilization, cAMP formation or MAPK phosphorylation
T1 construct: The Ile^107 isoform of NPSR was generated by PCR using synthetic oligonucleotides and the Quik Change Site-Directed Mutagenesis kit from Stratagene; expressed in transfected cells
T1 sequence (Q6W5P4 1-371 N107I): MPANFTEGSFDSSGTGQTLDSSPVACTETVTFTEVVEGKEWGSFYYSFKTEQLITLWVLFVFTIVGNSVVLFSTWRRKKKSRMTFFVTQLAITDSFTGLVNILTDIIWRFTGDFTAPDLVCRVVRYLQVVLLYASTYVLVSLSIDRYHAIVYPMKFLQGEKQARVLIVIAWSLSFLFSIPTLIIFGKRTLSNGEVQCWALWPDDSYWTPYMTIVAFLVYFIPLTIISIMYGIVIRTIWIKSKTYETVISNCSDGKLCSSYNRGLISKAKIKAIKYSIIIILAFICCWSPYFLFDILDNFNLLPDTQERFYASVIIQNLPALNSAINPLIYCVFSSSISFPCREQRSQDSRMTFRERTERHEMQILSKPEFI
Method: Changes of agonist-induced intracellular Ca^2+ were measured using the FLIPR technology as described before (5, 6). NPS and truncated NPS peptides were a gift from Phoenix Pharmaceuticals (Belmont, Calif.). Dose-response curves were calculated using GraphPad Prism (Graph Pad, San Diego). Mean EC50 values of populations of stable clones expressing either wildtype or mutant NPSR were compared using unpaired t-test and p<0.05 was considered significant.
Two cells lines expressing similar levels (measured by radioligand binding; see below) of either NPSR WT or NPSR Ile were chosen for detailed analyses of pharmacological parameters. […] In order to investigate whether this tenfold increase in agonist potency at NPSR lie was a general property of the receptor protein we compared a large number of stable clones expressing either NPSR WT or NPSR Ile^107 by establishing dose-response curves for each construct and calculating mean EC50 values for the populations.

NPSR C-alt = biological target: T2, NPSR C-alt (Homo sapiens, UniProt Q6W5P4); assay: CRE-luciferase reporter gene assay, HEK 293 cells, NPSR C-alt; type: cell-based; settings: transiently transfected HEK cells; read-out: EC50, luciferase reporter induction
T2 construct: The C-terminal splice variant of NPSR (NPSR C-alt, GPRA isoform B); expressed in transfected cells; host or cells: HEK 293 cells carrying the CRE-luciferase reporter, transient transfection, pcDNA3.1 hygro
T2 sequence (Q6W5P4 1-377 isoform Q6W5P4-4): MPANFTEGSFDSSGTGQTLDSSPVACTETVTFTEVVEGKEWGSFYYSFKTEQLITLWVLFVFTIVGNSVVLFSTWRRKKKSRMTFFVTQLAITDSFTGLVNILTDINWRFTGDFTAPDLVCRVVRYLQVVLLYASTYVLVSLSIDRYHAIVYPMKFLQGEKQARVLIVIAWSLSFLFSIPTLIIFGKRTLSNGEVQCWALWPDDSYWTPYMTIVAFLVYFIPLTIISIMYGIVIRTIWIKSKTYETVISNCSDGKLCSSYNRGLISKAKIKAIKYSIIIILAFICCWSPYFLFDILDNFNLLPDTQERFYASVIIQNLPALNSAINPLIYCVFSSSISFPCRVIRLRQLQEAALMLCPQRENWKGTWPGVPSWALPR
Source text: HEK 293 cells were stably transfected with a reporter gene containing 6 copies of a cAMP response element (CRE; sequence […]) in front of a luciferase reporter gene (Promega) cloned into pcDNA3.1 neo. One stable clone showing robust induction of reporter gene expression after forskolin challenge was chosen for further experiments. The different NPSR isoform cDNAs (cloned into pcDNA3.1 hygro) were transfected into these cells using lipofectamine and stable clones were selected. The same cells and procedures were also used for transient transfection. For induction of reporter gene expression cells were plated in 96-well plates and incubated with agonist for 5 hours in serum-free medium, followed by aspiration of the medium and cell lysis with 25 mM Tris-phosphate, pH 7.8, 2 mM dithiothreitol, 2 mM 1,2-diaminocyclohexane-N,N,N′,N′,-tetraacetic acid, 10% glycerol, 1% Triton X-100. After one freeze-thaw cycle aliquots of supernatant were transferred to white clear-bottom 96-well plates (Greiner) and luciferase content was quantified by bioluminescence (Luc-Screen, Applied Biosystems). Plates were counted in a scintillation counter using bioluminescence settings (MicroBeta, Wallac-Perkin Elmer).

NPS: neuropeptide S, endogenous NPSR ligand; species of the peptide not stated at the place of the result (SFRNGVGTGMKKTSFQRAKS)
number of entries in the central zone (C57Bl/6 mice [1]; first 10 minutes): significantly increased | ambulations in the outer zones of the open field (C57Bl/6 mice [1]; same doses): increased | percentage of entries in the light area (C57Bl/6 mice [2]; 0.03-3 nmole i.c.v.): higher percentage | time in the light area (C57Bl/6 mice [2]; 0.03-3 nmole i.c.v.): prolonged time | number of transitions between the two compartments (C57Bl/6 mice [2]; 0.1-3 nmole i.c.v.): significantly increased | latency until first exit from the dark compartment (C57Bl/6 mice [2]; 0.3-3 nmole i.c.v.): significantly reduced | number of transitions from closed to open arms (C57Bl/6 mice [3]; 0.1 and 1 nmole i.c.v.): higher number of transitions | time on the open arms (C57Bl/6 mice [3]; 0.1 and 1 nmole i.c.v.): significantly more time | closed-closed transitions (general activity) (C57Bl/6 mice [3]; all doses i.c.v.): did not reach statistical significance | efficacy at NPSR Ile107 as compared to the wildtype receptor (NPSR Ile^107): ten-fold | EC50 (NPSR C-alt): 146 ± 15.1 nM
